Data from ChEMBL document CHEMBL1201862, “PubChem BioAssay data set” (2004).
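Assay format: 96-well plates, 48-hour exposure. The concentration for 50% growth inhibition is given as GI50.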 Active and inactive are the calls of the source. Rule as the data show it: active = GI50 up to about 1.1 µM and inactive = higher.

Experiments:
Assay in all cases: NCI anticancer screen, dose series, 48 h
U-251 = test system: U-251
MOLT-4 = test system: MOLT-4
HT-29 = test system: HT-29
Hs-578T = test system: Hs-578T
ACHN = test system: ACHN
K562 = test system: K562
HCC 2998 = test system: HCC 2998
A549 = test system: A549
CAKI-1 = test system: CAKI-1
MDA-MB-435 = test system: MDA-MB-435
M14 = test system: M14
UACC-62 = test system: UACC-62
MDA-MB-231 = test system: MDA-MB-231
NCI-H460 = test system: NCI-H460
EKVX = test system: EKVX
PC-3 = test system: PC-3
TK-10 = test system: TK-10
UACC-257 = test system: UACC-257
KM12 = test system: KM12
IGROV-1 = test system: IGROV-1

Row | Compound | GI50 (U-251) | GI50 (MOLT-4) | GI50 (HT-29) | GI50 (Hs-578T) | GI50 (ACHN) | GI50 (K562) | GI50 (HCC 2998) | GI50 (A549) | GI50 (CAKI-1) | GI50 (MDA-MB-435) | GI50 (M14) | GI50 (UACC-62) | GI50 (MDA-MB-231) | GI50 (NCI-H460) | GI50 (EKVX) | GI50 (PC-3) | GI50 (TK-10) | GI50 (UACC-257) | GI50 (KM12) | GI50 (IGROV-1)
1 | CCC(C)C(=O)OCC(=O)c1ccc(-c2ccccc2)cc1 (stereo not given) | 50.5 µM (inactive) | 46.9 µM (inactive) | 34.6 µM (inactive) | 45.9 µM (inactive) | > 100 µM (inactive) | 41 µM (inactive) | > 100 µM (inactive) | 44.1 µM (inactive) | 42.7 µM (inactive) | 99.1 µM (inactive) | 89.7 µM (inactive) | 79.3 µM (inactive) | 78.9 µM (inactive) | > 100 µM (inactive) | 25.6 µM (inactive) | 63 µM (inactive) | 66.4 µM (inactive) | 27.2 µM (inactive) | 28.1 µM (inactive) | > 100 µM (inactive)
2 | N#Cc1cc2c(cc1C#N)SCCSCCCSCCS2 | 5.32 µM (inactive) | > 89.9 µM (inactive) | > 100 µM (inactive) | 3.96 µM (inactive) | 6.93 µM (inactive) | > 100 µM (inactive) | > 72.4 µM (inactive) | > 83.9 µM (inactive) | 22.8 µM (inactive) | > 100 µM (inactive) | 38.3 µM (inactive) | 9.93 µM (inactive) | 10 µM (inactive) | 15.2 µM (inactive) | > 48.9 µM (inactive) | 21.9 µM (inactive) | 2.82 µM (inactive) | > 87.9 µM (inactive) | > 100 µM (inactive) | 24.7 µM (inactive)
3 | O=c1c2cc([N+](=O)[O-])ccc2[nH]n1Cc1ccccc1Cl | 75.5 µM (inactive) | 74 µM (inactive) | 54.8 µM (inactive) | 48.8 µM (inactive) | 46.1 µM (inactive) | 48.8 µM (inactive) | 57.9 µM (inactive) | 42.1 µM (inactive) | > 100 µM (inactive) | 64.9 µM (inactive) | 86.1 µM (inactive) | > 100 µM (inactive) | 70.5 µM (inactive) | 31 µM (inactive) | 30.2 µM (inactive) | 93.8 µM (inactive) | 18.2 µM (inactive) | 98.6 µM (inactive) | 55.7 µM (inactive) | 80.2 µM (inactive)
4 | O=C(c1ccccc1)c1ccc(N2C(=O)/C(=C/c3cccc(Oc4ccccc4)c3)N=C2c2ccccc2)c(N2C(=O)/C(=C/c3cccc(Oc4ccccc4)c3)N=C2c2ccccc2)c1 | 31.3 µM (inactive) | 11.9 µM (inactive) | 30.9 µM (inactive) | 26.9 µM (inactive) | 53 µM (inactive) | 9.42 µM (inactive) | 20 µM (inactive) | 31.6 µM (inactive) | 41.5 µM (inactive) | 4.72 µM (inactive) | 35.7 µM (inactive) | 11.9 µM (inactive) | 45.8 µM (inactive) | 23.9 µM (inactive) | 44.2 µM (inactive) | 26.5 µM (inactive) | 25.5 µM (inactive) | 17.7 µM (inactive) | 24.5 µM (inactive) | 39.1 µM (inactive)
5 | COc1cccc(N2N=C3c4ccccc4-n4c(nc5ccccc54)C3C2N)c1 (stereo not given) | > 100 µM (inactive) |  | > 100 µM (inactive) | > 100 µM (inactive) | > 100 µM (inactive) |  | > 100 µM (inactive) | > 100 µM (inactive) | > 100 µM (inactive) | 62.8 µM (inactive) | 34.1 µM (inactive) | > 100 µM (inactive) | 92.3 µM (inactive) | > 100 µM (inactive) | > 100 µM (inactive) | > 100 µM (inactive) | 92.9 µM (inactive) | > 100 µM (inactive) | > 100 µM (inactive) | > 100 µM (inactive)
6 | CSc1nc(SC)c2c(C)cn(C3OC(C)C(O)C(O)C3O)c2n1 (stereo not given) | 62.7 µM (inactive) | 39.3 µM (inactive) | 53.7 µM (inactive) | 45.6 µM (inactive) | 58.2 µM (inactive) |  | 57.5 µM (inactive) | 74.5 µM (inactive) | < 0.01 µM (active) | 40 µM (inactive) | 87.1 µM (inactive) | 76.6 µM (inactive) | 52.7 µM (inactive) | 43.1 µM (inactive) | > 100 µM (inactive) | 43.9 µM (inactive) | 62.2 µM (inactive) |  | 56.8 µM (inactive) | 70 µM (inactive)
7 | N#Cc1nc(-c2cc([N+](=O)[O-])cc([N+](=O)[O-])c2)oc1N |  | > 10 µM (inactive) | > 10 µM (inactive) | > 10 µM (inactive) | > 10 µM (inactive) | > 10 µM (inactive) | > 10 µM (inactive) | > 10 µM (inactive) | > 10 µM (inactive) | > 10 µM (inactive) | > 10 µM (inactive) | > 10 µM (inactive) | > 10 µM (inactive) | > 10 µM (inactive) | > 10 µM (inactive) | > 10 µM (inactive) | > 10 µM (inactive) | > 10 µM (inactive) | > 10 µM (inactive) | > 10 µM (inactive)
